Laboratory results reported in US5891462A, “Composition for transdermal administration of an estrogen” (Permatec N.V., priority 1996, dated 1999).
“And” between values parts separate entries of the source, which are not always exact repeats. Equal values may be shown once. “Also recorded” adds a separate entry of the source. Read-outs that look alike come from different tables or passages of the source.

Legend:
[1] = cited from earlier work
[2] = transdermal; Balfour 1990; cited from earlier work
clinical = test: clinical; parameters: species or system postmenopausal women; details: human, in vivo
Experimental: The duration of the study was 3 days, thus 3 dose application were applied. Blood samples were taken at 0 h (basal value), 2, 6, 12, 24, 30, 36, 48, 54, 60, and 72 hs after the initiation of the study. Estradiol and norethindrone serum levels were determined by time-resolved fluoroimmunoassay and by enzyme immunoassay respectively.

[3] = cited from earlier work; for Enhancement factor: normalized skin permeation rate with/without enhancer
[4] = In vitro permeation through abdominal guinea pig skin (vertical diffusion cell, HPLC); assay type: in vitro ADME; details: for penetration enhancement at early and late times (in words): early 8 hs, late 16, 24 hs, occlusive
Excerpt: FIG. 3 an apparatus "Hanson P/N 57-VC" (vertical diffusion cell) is schematically represented 3 wherein:
The term "occlusive condition" used for the experimental tests carried out with the apparatus described in FIG. 3, means that the donor chamber (2) of the diffusion is closed by the top plate (3) i.e. not in communication with the external air. On the contrary the term "non occlusive condition" means that the top plate (3) has a hole allowing the free interaction between the formulation to be tested and the external air permitting the evaporation of the volatile solvents.
Furthermore, in vitro permeation experiments through abdominal guinea pig skin was made using the diffusion chamber that is schematically shown in FIG. 3.
Female guinea pigs, 8 to 16 months of age were shaved on their abdominal skin 72 hs. before sacrifice by cervical dislocation. […] A section of full thickness abdominal skin was surgically excised and mounted between the sections of a vertical diffusion cell having 1.77 sqcm of surface area, the epidermal facing up. A given amount of the pharmaceutical formulations exemplified above were spread over the epidermal layer whilst the dermal layer contact with a solution of sodium lauryl sulfate (SDS), at 34° C.
The experiments were conducted in two different conditions: in occlusive condition with a glass stopper, which avoid the evaporating of the volatile solvents, and in non occlusive condition, whereas the stopper used allow the evaporation of the volatile solvents.

[5] = Whitehead 1990; cited from earlier work
[6] = enhancer: Decylmethyl sulfoxide

For C[C@]12CC[C@@H]3c4ccc(O)cc4CC[C@H]3[C@@H]1CC[C@@H]2O [Estradiol, 17-β-estradiol], the “therapeutically effective daily dose of estrogen” value ([1]; Powers 1985) is listed as 40 to 50 µg/day, the “serum levels of estradiol required for clinical efficacy” value ([1]; reviewed by Powers) is listed as 40 to 60 pg/mL and the “effects on gonadotrophins, vaginal epithelium, bone resorption and menopausal symptoms” value [2] is listed as “comparable to those of oral and subcutaneous estrogens”. For the same molecule, the “undesirable effects of oral estrogen on hepatic metabolism” value [2] was “avoided”, the “Serum Levels of Estradiol (mean)” value (clinical) was 6,37 pg/ml and the concentration at 2 h (clinical; topical or ocular) was 0.0328 ng/mL. It also gave a concentration at 6 h (clinical; topical or ocular) of 0.0205 ng/mL, a concentration at 12 h (clinical; topical or ocular) of 0.0268 ng/mL and a concentration at 24 h (clinical; topical or ocular) of 0.0276 ng/mL. For the same molecule, the concentration at 30 h (clinical; topical or ocular) was 0.0393 ng/mL, the concentration at 36 h (clinical; topical or ocular) was 0.0303 ng/mL and the concentration at 48 h (clinical; topical or ocular) was 0.0359 ng/mL. It also gave a concentration at 54 h (clinical; topical or ocular) of 0.0652 ng/mL, a concentration at 60 h (clinical; topical or ocular) of 0.0487 ng/mL and a concentration at 72 h (clinical; topical or ocular) of 0.0437 ng/mL. For the same molecule, the Enhancement factor ([3]; enhancer: Azone) was 20.17, the Enhancement factor [3, 6] was 12.59 and the Enhancement factor ([3]; enhancer: Propyl myristate) was 9.33. The Enhancement factor ([3]; enhancer: Propyl oleate) was 14.62.

For C[C@]12CCC(=O)C=C1CC[C@@H]1[C@@H]2[C@@H](O)C[C@@]2(C)[C@H]1CC[C@]2(O)C(=O)CO [Hydrocortisone], the Enhancement factor ([3]; enhancer: Azone) is given as 61.3, the Enhancement factor [3, 6] is given as 25.23 and the Enhancement factor ([3]; enhancer: Propyl myristate) is given as 4.57. The Enhancement factor ([3]; enhancer: Propyl oleate) was 5.01.

In the case of COc1ccc2c(c1)c(CC(=O)O)c(C)n2C(=O)c1ccc(Cl)cc1 [Indomethacin], the Enhancement factor ([3]; enhancer: Azone) is listed as 14.49, the Enhancement factor [3, 6] is listed as 15.67 and the Enhancement factor ([3]; enhancer: Propyl myristate) is listed as 3.77. For the same molecule, the Enhancement factor ([3]; enhancer: Propyl oleate) was 4.67.

With C#C[C@]1(O)CC[C@H]2[C@@H]3CCC4=CC(=O)CC[C@@H]4[C@H]3CC[C@@]21C [Norethindrone, norethindrone] the “Serum Levels of Norethindrone (mean)” value (clinical) was 0.093 ng/mL, the “Serum Levels of Norethindrone (mean)” value (clinical; topical or ocular, 2 h) was 1.407 ng/mL and the “Serum Levels of Norethindrone (mean)” value (clinical; topical or ocular, 6 h) was 1.394 ng/mL. For the same molecule, the “Serum Levels of Norethindrone (mean)” value (clinical; topical or ocular, 12 h) was 1.908 ng/mL, the “Serum Levels of Norethindrone (mean)” value (clinical; topical or ocular, 24 h) was 2.695 ng/mL and the “Serum Levels of Norethindrone (mean)” value (clinical; topical or ocular, 30 h) was 3.461 ng/mL. For the same molecule, the “Serum Levels of Norethindrone (mean)” value (clinical; topical or ocular, 36 h) was 3.096 ng/mL, the “Serum Levels of Norethindrone (mean)” value (clinical; topical or ocular, 48 h) was 3.713 ng/mL and the “Serum Levels of Norethindrone (mean)” value (clinical; topical or ocular, 54 h) was 5.61 ng/mL. For the same molecule, the “Serum Levels of Norethindrone (mean)” value (clinical; topical or ocular, 60 h) was 4.904 ng/mL and the “Serum Levels of Norethindrone (mean)” value (clinical; topical or ocular, 72 h) was 4.899 ng/mL.

In the case of CC(=O)[C@H]1CC[C@H]2[C@@H]3CCC4=CC(=O)CC[C@]4(C)[C@H]3CC[C@]12C [Progesterone], the Enhancement factor ([3]; enhancer: Azone) is listed as 5.96, the Enhancement factor [3, 6] is listed as 11.04 and the Enhancement factor ([3]; enhancer: Propyl myristate) is listed as 4.56. For the same molecule, the Enhancement factor ([3]; enhancer: Propyl oleate) was 5.36.

In the case of CCCCCC(=O)O [caproic acid], the “enhancement of skin permeation of progesterone by fatty acids” value ([3]; progesterone, saturated fatty acid chain length, Chien) is given as “major enhancement effect”.

For CCCCCCCCCC(=O)O [decanoic acid], the “enhancement for estradiol by fatty acids” value ([3]; estradiol, U.S. Pat. No. 5,145,682) is given as “better enhancer for estradiol”.

With CCOCCOCCO [diethylene glycol monoethyl ether] the “penetration enhancement at early and late times (in words)” value [4] was “excellent penetration enhancer at late times (16, 24 hs); also recorded: good penetration enhancer for late times; also recorded: enhances the permeation rates of the hormones in the later times”.

For CCCCCCCCCCCC(=O)O [lauric acid], the “enhancer comparison for naloxone” value ([3]; naloxone, Brian and Walters) is given as “better enhancer than lauryl alcohol”.

With CCCCCCCCCCCCO [lauryl alcohol] the “norethindrone acetate permeation enhancement (in words)” value ([4]; comparison of enhancers) was “two folds higher; also recorded: greater; also recorded: highest enhancement factor for norethindrone acetate; also recorded: most adequate enhancer” and the “penetration enhancement at early and late times (in words)” value [4] was “good penetration enhancer at early time (8 hs); also recorded: good penetration enhancer for early times; also recorded: higher enhancement factor in the early times”.

For CCCCCCCCCCO [n-decanol], the “norethindrone acetate permeation enhancement (in words)” value ([4]; comparison of enhancers) was “greater”.

For C#C[C@]1(OC(C)=O)CC[C@H]2[C@@H]3CCC4=CC(=O)CC[C@@H]4[C@H]3CC[C@@]21C [norethindrone acetate], the “transdermal dose required to oppose estrogen hyperstimulation of the endometrium / therapeutically effective daily dose of progestin” value [5] is listed as 200 to 300 µg/day and 200 to 250 µg/day.

In the case of CCCCCCCC/C=C\CCCCCCCCO [oleyl alcohol], the “estradiol permeation enhancement (in words)” value ([4]; comparison of enhancers) is reported as “highest enhancement factor for estradiol”.
